Reference: PMC8260761, “A bacteriocin-based treatment option for Staphylococcus haemolyticus biofilms” (Scientific Reports, 2021)

Legend:
Experiment in all cases: Spot-on-lawn inhibition assay
Type in all cases: cell-based
[1] = tested on: Staphylococcus haemolyticus strains; design: key to Mutants observed after 24 h (mark *): *Mutants observed after 24 h; key to Average inhibition score: –: “−” = No inhibition; “+” = Unclear zone; “++” = zone < 1 cm; “+++” = zone ≥ 1 cm; details: for Mutants observed after 24 h (mark *): spot of 5 μl at 1 mg/ml
Procedure: (§1) A semi-quantitative spot-on-lawn inhibitory assay was performed on 51 bacterial indicator strains (Table S1) to determine the bacteriocins inhibition spectra. Overnight cultures were diluted 1:100 in BHI soft agar and distributed on BHI agar plates. Once solidified, bacteriocins with various concentrations were applied on designated spots. The plates were incubated at appropriate temperature O/N and inhibition zones were measured the following day. To determine minimal inhibitory concentration (MIC50) of H1 against clinical S. haemolyticus isolates (Table S2), as well as strains heterologously expressing RseP (Table S4), the microtiterplate antimicrobial assay was performed as previously described[41],[79]. MIC50 was defined as the minimal bacteriocin concentration needs to inhibit the growth of a bacterial strain by at least 50%.

[2] = tested on: S. aureus; design: key: –: “−” = No inhibition; “+” = Unclear zone; “++” = zone < 1 cm; “+++” = zone ≥ 1 cm; details: 5 µl at 1 mg/ml, n=3
Procedure: as §1

[3] = tested on: S. epidermidis; design: key: –: “−” = No inhibition; “+” = Unclear zone; “++” = zone < 1 cm; “+++” = zone ≥ 1 cm; details: S. epidermidis LMG 3522; 5 µl at 1 mg/ml; n=3
Procedure: as §1

[4] = tested on: Staphylococcus arlettae; design: key: –: “−” = No inhibition; “+” = Unclear zone; “++” = zone < 1 cm; “+++” = zone ≥ 1 cm; details: Staphylococcus arlettae LMG 4134; 5 µl at 1 mg/ml; n=3
Procedure: as §1

[5] = tested on: L. monocytogenes; details: L. monocytogenes EDGe; 5 µl at 1 mg/ml; n=3
Procedure: as §1

[6] = tested on: Bacillus cereus; design: key: “-“ = No inhibition; “+” = Unclear zone; “++” = zone < 1 cm; “+++”= zone > 1 cm; details: 5 µl at 1 mg/ml, n=3
Procedure: as §1

[7] = tested on: C. piscicola; design: key: “-“ = No inhibition; “+” = Unclear zone; “++” = zone < 1 cm; “+++”= zone > 1 cm; details: C. piscicola LMG 2332; 5 µl at 1 mg/ml; n=3
Procedure: as §1

[8] = tested on: L. gelidum; design: key: “-“ = No inhibition; “+” = Unclear zone; “++” = zone < 1 cm; “+++”= zone > 1 cm; details: L. gelidum LMG 2386; 5 µl at 1 mg/ml; n=3
Procedure: as §1

[9] = tested on: L. lactis; design: key: “-“ = No inhibition; “+” = Unclear zone; “++” = zone < 1 cm; “+++”= zone > 1 cm; details: 5 µl at 1 mg/ml, n=3
Procedure: as §1

## MLAKIKAMIKKFPNPYTLAAKLTTYEINWYKQQYGRYPWERPVA [EJ97, enterocin EJ97]
[1]; S. haemolyticus 4068, 5 μl at 1 mg/ml, n = 3
  Average inhibition score: ++ (“++” = zone < 1 cm)
[1]; S. haemolyticus 4068
  Mutants observed after 24 h (mark *): *
[1]; S. haemolyticus 4069, 5 μl at 1 mg/ml, n = 3
  Average inhibition score: ++ (“++” = zone < 1 cm)
[1]; S. haemolyticus 4069
  Mutants observed after 24 h (mark *): *
[1]; S. haemolyticus 4070, 5 μl at 1 mg/ml, n = 3
  Average inhibition score: ++ (“++” = zone < 1 cm)
[1]; S. haemolyticus 4070
  Mutants observed after 24 h (mark *): *
[1]; S. haemolyticus 4071, 5 μl at 1 mg/ml, n = 3
  Average inhibition score: ++ (“++” = zone < 1 cm)
[1]; S. haemolyticus 4071
  Mutants observed after 24 h (mark *): *
[1]; S. haemolyticus 4072, 5 μl at 1 mg/ml, n = 3
  Average inhibition score: ++ (“++” = zone < 1 cm)
[1]; S. haemolyticus 4072
  Mutants observed after 24 h (mark *): *
[1]; S. haemolyticus 4073, 5 μl at 1 mg/ml, n = 3
  Average inhibition score: ++ (“++” = zone < 1 cm)
[1]; S. haemolyticus 4073
  Mutants observed after 24 h (mark *): *
[1]; S. haemolyticus 7067_4_21, 5 μl at 1 mg/ml, n = 3
  Average inhibition score: ++ (“++” = zone < 1 cm)
[1]; S. haemolyticus 7067_4_21
  Mutants observed after 24 h (mark *): *
[1]; S. haemolyticus 7067_4_28, 5 μl at 1 mg/ml, n = 3
  Average inhibition score: +++ (“+++” = zone ≥ 1 cm)
[1]; S. haemolyticus 7067_4_28
  Mutants observed after 24 h (mark *): *
[1]; S. haemolyticus 7067_4_39, 5 μl at 1 mg/ml, n = 3
  Average inhibition score: +
[1]; S. haemolyticus 7067_4_48, 5 μl at 1 mg/ml, n = 3
  Average inhibition score: +
[1]; S. haemolyticus 7067_4_49, 5 μl at 1 mg/ml, n = 3
  Average inhibition score: ++ (“++” = zone < 1 cm)
[1]; S. haemolyticus 7067_4_49
  Mutants observed after 24 h (mark *): *
[1]; S. haemolyticus 7067_4_56, 5 μl at 1 mg/ml, n = 3
  Average inhibition score: ++ (“++” = zone < 1 cm)
[1]; S. haemolyticus 7067_4_56
  Mutants observed after 24 h (mark *): *
[1]; S. haemolyticus 7067_4_60, 5 μl at 1 mg/ml, n = 3
  Average inhibition score: +++ (“+++” = zone ≥ 1 cm)
[1]; S. haemolyticus 7067_4_60
  Mutants observed after 24 h (mark *): *
[1]; S. haemolyticus 7067_4_66, 5 μl at 1 mg/ml, n = 3
  Average inhibition score: ++ (“++” = zone < 1 cm)
[1]; S. haemolyticus 7067_4_66
  Mutants observed after 24 h (mark *): *
[1]; S. haemolyticus 7067_4_67, 5 μl at 1 mg/ml, n = 3
  Average inhibition score: ++ (“++” = zone < 1 cm)
[1]; S. haemolyticus 7067_4_67
  Mutants observed after 24 h (mark *): *
[1]; S. haemolyticus 7067_4_71, 5 μl at 1 mg/ml, n = 3
  Average inhibition score: +++ (“+++” = zone ≥ 1 cm)
[1]; S. haemolyticus 7067_4_71
  Mutants observed after 24 h (mark *): *
[1]; S. haemolyticus 7067_4_84, 5 μl at 1 mg/ml, n = 3
  Average inhibition score: ++ (“++” = zone < 1 cm)
[1]; S. haemolyticus 7067_4_84
  Mutants observed after 24 h (mark *): *
[1]; S. haemolyticus 7068_7_63, 5 μl at 1 mg/ml, n = 3
  Average inhibition score: ++ (“++” = zone < 1 cm)
[1]; S. haemolyticus 7068_7_63
  Mutants observed after 24 h (mark *): *
[1]; S. haemolyticus LMG 4133, 5 µl at 1 mg/ml, n=3
  Average inhibition score: ++ (“++” = zone < 1 cm)
[1]; S. haemolyticus SH01, 5 μl at 1 mg/ml, n = 3
  Average inhibition score: +++ (“+++” = zone ≥ 1 cm)
[1]; S. haemolyticus SH01
  Mutants observed after 24 h (mark *): *
[1]; S. haemolyticus SH04, 5 μl at 1 mg/ml, n = 3
  Average inhibition score: +++ (“+++” = zone ≥ 1 cm)
[1]; S. haemolyticus SH04
  Mutants observed after 24 h (mark *): *
[1]; S. haemolyticus SH09, 5 μl at 1 mg/ml, n = 3
  Average inhibition score: +
[1]; S. haemolyticus SH10, 5 μl at 1 mg/ml, n = 3
  Average inhibition score: +++ (“+++” = zone ≥ 1 cm)
[1]; S. haemolyticus SH10
  Mutants observed after 24 h (mark *): *
[1]; S. haemolyticus SH14, 5 μl at 1 mg/ml, n = 3
  Average inhibition score: ++ (“++” = zone < 1 cm)
[1]; S. haemolyticus SH14
  Mutants observed after 24 h (mark *): *
[1]; S. haemolyticus SH20, 5 μl at 1 mg/ml, n = 3
  Average inhibition score: ++ (“++” = zone < 1 cm)
[1]; S. haemolyticus SH20
  Mutants observed after 24 h (mark *): *
[1]; S. haemolyticus SH46, 5 μl at 1 mg/ml, n = 3
  Average inhibition score: ++ (“++” = zone < 1 cm)
[1]; S. haemolyticus SH46
  Mutants observed after 24 h (mark *): *
[1]; S. haemolyticus SH47, 5 μl at 1 mg/ml, n = 3
  Average inhibition score: +++ (“+++” = zone ≥ 1 cm)
[1]; S. haemolyticus SH47
  Mutants observed after 24 h (mark *): *
[1]; six S. haemolyticus strains 4068–4073, 0.04, 0.2 and 1.0 mg/ml, 5 µl spotted
  Inhibition zones at three concentrations: some inhibition was seen only at the highest concentration
[2]; S. aureus LMG 3263
  Average inhibition score: +
[2]; S. aureus LMG 3326
  Average inhibition score: +
[3]
  Average inhibition score: +
[4]
  Average inhibition score: +
[5]
  Average inhibition score: +++ (“+++”= zone > 1 cm)
[6]; B. cereus LMG 2711
  Average inhibition score: -
[6]; B. cereus LMG 2731
  Average inhibition score: -
[6]; Bacillus cereus LMG 2805
  Average inhibition score: -
[7]
  Average inhibition score: -
[8]
  Average inhibition score: -
[9]; L. lactis IL1403
  Average inhibition score: +++ (“+++”= zone > 1 cm)
[9]; L. lactis LMG 2081
  Average inhibition score: -
